The values that follow come from patent publication US20070003586A1, “Insecticidal coating for use on cellulosic substrates” (priority 2005, published 2007).

The structures appear in SMILES notation.

A short description of this data set: LD50 (lethal dose 50%) value. To be noted: rat, in vivo; insecticide as such; subjects typically rats. The method, then:
According to one aspect of the present invention, an insecticidal coating composition for use on cellulosic substrates is provided comprising a polyvinyl acetate emulsion; a vinyl acetate ethylene copolymer emulsion; and an insecticide having an LD50 value of between about 14,500 to about 15,500 mg/kg. By “LD50” value, it is meant “lethal dose 50%” value, which indicates the quantity of a substance, which, when administered to a population of subjects (typically rats), will cause 50% of the subjects to perish.

Broadly, the LD50 is the dose expected to kill half of the subjects tested. A low value points to greater toxicity. In turn, `CC1(C)[C@H](C(=O)O[C@H](C#N)c2cccc(Oc3ccccc3)c2)[C@@H]1C=C(Br)Br` [deltamethrin, (S)-cyano-3-phenoxybenzyl(1R)-cis-3-(2,2-dibromovinyl)-2,2-dimethylcyclopropane carboxylate] had a median lethal dose (LD50) of roughly 15000 mg/kg.
